Biological target: T1, Androgen Receptor (Homo sapiens, UniProt P10275+P40337, T878A)
T1 construct: Compounds have been evaluated in this assay in LNCaP and/or VCaP cells utilizing similar protocols; endogenous in cells; host or cells: LNCaP cells
Experiment: Androgen Receptor ELISA assay (PathScan AR ELISA) in LNCaP cells: AR degradation, Dmax and DC50
Type: cell-based
Details: for DC50: concentration that caused 50% Androgen Receptor degradation

[1] = highest percentage of Androgen Receptor degradation
[2] = highest percentage of Androgen Receptor degradation observed

T1 sequence (P10275 whole entry T878A): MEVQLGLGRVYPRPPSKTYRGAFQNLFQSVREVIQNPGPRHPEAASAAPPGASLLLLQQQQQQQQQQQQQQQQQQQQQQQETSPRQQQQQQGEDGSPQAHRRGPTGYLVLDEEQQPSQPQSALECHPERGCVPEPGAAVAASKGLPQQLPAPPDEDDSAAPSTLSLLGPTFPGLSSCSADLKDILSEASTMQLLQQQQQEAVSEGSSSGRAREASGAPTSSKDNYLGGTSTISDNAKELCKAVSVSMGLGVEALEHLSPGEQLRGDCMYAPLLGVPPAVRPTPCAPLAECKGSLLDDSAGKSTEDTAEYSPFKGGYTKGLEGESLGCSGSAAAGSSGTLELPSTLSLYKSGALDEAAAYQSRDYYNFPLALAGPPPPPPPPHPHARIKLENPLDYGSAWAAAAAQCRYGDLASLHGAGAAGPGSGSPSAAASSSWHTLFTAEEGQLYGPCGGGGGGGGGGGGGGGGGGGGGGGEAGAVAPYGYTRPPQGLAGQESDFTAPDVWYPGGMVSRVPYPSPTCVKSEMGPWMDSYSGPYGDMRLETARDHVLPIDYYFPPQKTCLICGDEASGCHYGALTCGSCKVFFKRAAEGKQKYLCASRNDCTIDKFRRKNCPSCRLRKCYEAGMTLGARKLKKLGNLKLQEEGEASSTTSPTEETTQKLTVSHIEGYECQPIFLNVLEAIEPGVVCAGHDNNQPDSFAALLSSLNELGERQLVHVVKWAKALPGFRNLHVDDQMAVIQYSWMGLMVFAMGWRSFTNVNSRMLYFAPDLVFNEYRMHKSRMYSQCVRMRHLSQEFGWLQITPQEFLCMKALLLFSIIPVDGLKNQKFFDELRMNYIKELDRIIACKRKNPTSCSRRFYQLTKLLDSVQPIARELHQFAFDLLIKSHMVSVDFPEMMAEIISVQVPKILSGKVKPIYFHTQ
T1 sequence (P40337 whole entry): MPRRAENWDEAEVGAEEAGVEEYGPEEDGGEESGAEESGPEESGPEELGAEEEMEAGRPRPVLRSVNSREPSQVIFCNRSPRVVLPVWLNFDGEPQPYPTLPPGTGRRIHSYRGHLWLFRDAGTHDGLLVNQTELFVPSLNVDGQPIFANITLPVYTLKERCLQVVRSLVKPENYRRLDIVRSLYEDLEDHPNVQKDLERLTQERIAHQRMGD
T1 sequence (Q15369 whole entry partner): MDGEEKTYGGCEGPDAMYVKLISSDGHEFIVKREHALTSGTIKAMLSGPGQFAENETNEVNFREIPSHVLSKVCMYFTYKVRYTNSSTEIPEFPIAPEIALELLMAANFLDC
T1 sequence (Q15370 whole entry partner): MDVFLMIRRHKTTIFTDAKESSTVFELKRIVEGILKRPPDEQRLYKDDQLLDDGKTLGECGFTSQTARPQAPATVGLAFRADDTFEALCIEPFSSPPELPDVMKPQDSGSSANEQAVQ

SMILES	DC50 [nM]	Dmax [1] [%]	Dmax [2] [%]
Cc1ncsc1-c1ccc(CNC(=O)[C@@H]2C[C@@H](O)CN2C(=O)[C@@H](NC(=O)c2ccc(OCCCOc3ccc(-c4ccc(N5C(=S)N(c6ccc(C#N)c(C(F)(F)F)c6)C(=O)C5(C)C)cc4)cc3)cc2)C(C)(C)C)cc1 [Example 284]	51 to 500	26 to 50	
Cc1ncsc1-c1ccc(CNC(=O)[C@@H]2C[C@@H](O)CN2C(=O)[C@@H](NC(=O)COCCOCCOCCOc2ccc(N3C(=S)N(c4cnc(C#N)c(C(F)(F)F)c4)C(=O)C3(C)C)cc2)C(C)(C)C)cc1 [Example 21, (2S,4R)-1-[(2S)-2-[2-(2-{2-[2-(4-{3-[6-cyano-5-(trifluoromethyl)pyridin-3-yl]-5,5-dimethyl-4-oxo-2-sulfanylideneimidazolidin-1-yl}phenoxy)ethoxy]ethoxy}ethoxy)acetamido]-3,3-dimethylbutanoyl]-4-hydroxy-N-{[4-(4-methyl-1,3-thiazol-5-yl)phenyl]methyl}pyrrolidine-2-carboxamide]			26 to 50
Cc1ncsc1-c1ccc(CNC(=O)[C@@H]2C[C@@H](O)CN2C(=O)[C@H](C(C)C)N2Cc3ccccc3C2=O)c(OCCOCCOCCCCCOCCOCCOc2ccc(N3C(=S)N(c4ccc(C#N)c(C(F)(F)F)c4)C(=O)C3(C)C)cc2)c1 [Example 218]		26 to 50	
Cc1ncsc1-c1ccc(CNC(=O)[C@@H]2C[C@@H](O)CN2C(=O)[C@@H](NC(=O)CCCOc2ccc(N3C(=S)N(c4ccc(C#N)c(C(F)(F)F)c4)C(=O)C3(C)C)cc2)C(C)(C)C)cc1 [Example 237]	> 501	26 to 50	
Cc1ncsc1-c1ccc(CNC(=O)[C@@H]2C[C@@H](O)CN2C(=O)[C@H](C(C)C)N2Cc3ccccc3C2=O)c(OCCCCOCCCCOCCCCOc2ccc(N3C(=S)N(c4ccc(C#N)c(C(F)(F)F)c4)C(=O)C3(C)C)cc2)c1 [Example 207]	51 to 500	26 to 50	
Cc1ncsc1-c1ccc(CNC(=O)[C@@H]2C[C@@H](O)CN2C(=O)[C@@H](NC(=O)COCCOCCOCCOc2ccc(N3C(=S)N(c4ccc(C#N)c(C(F)(F)F)c4)C(=O)C3(C)C)cc2F)C(C)(C)C)cc1 [Example 18, (2S,4R)-1-[(2S)-2-[2-(2-{2-[2-(4-{3-[4-cyano-3-(trifluoromethyl)phenyl]-5,5-dimethyl-4-oxo-2-sulfanylideneimidazolidin-1-yl}-2-fluorophenoxy)ethoxy]ethoxy}ethoxy)acetamido]-3,3-dimethylbutanoyl]-4-hydroxy-N-{[4-(4-methyl-1,3-thiazol-5-yl)phenyl]methyl}pyrrolidine-2-carboxamide]	51 to 500		51 to 70
Cc1ncsc1-c1ccc(CNC(=O)[C@@H]2C[C@@H](O)CN2C(=O)[C@@H](NC(=O)COCCCOCCCCCOc2ccc(N3C(=S)N(c4ccc(C#N)c(F)c4)C(=O)C3(C)C)cc2)C(C)(C)C)cc1 [Example 7]	< 50		51 to 70
Cc1cc(N2C(=O)C(C)(C)N(c3ccc(OCCCCCOCCCOCC(=O)N[C@H](C(=O)N4C[C@H](O)C[C@H]4C(=O)NCc4ccc(-c5scnc5C)cc4)C(C)(C)C)cc3)C2=S)ccc1C#N [Example 6, (2S,4R)-1-[(2S)-2-(2-{3-[(5-{4-[3-(4-cyano-3-methylphenyl)-5,5-dimethyl-4-oxo-2-sulfanylideneimidazolidin-1-yl]phenoxy}pentyl)oxy]propoxy}acetamido)-3,3-dimethylbutanoyl]-4-hydroxy-N-{[4-(4-methyl-1,3-diiazol-5-yl)phenyl]methyl}pyrrolidine-2-carboxamid]	< 50		> 71
Cc1ncsc1-c1ccc(CNC(=O)[C@@H]2C[C@@H](O)CN2C(=O)[C@@H](NC(=O)COCCO[C@H](C)[C@@H](C)OCCOc2ccc(N3C(=S)N(c4ccc(C#N)c(C(F)(F)F)c4)C(=O)C3(C)C)cc2)C(C)(C)C)cc1 [Example 23, (2S,4R)-1-[(2S)-2-[2-(2-{[(2R,3R)-3-[2-(4-{3-[4-cyano-3-(trifluoromethyl)phenyl]-5,5-dimethyl-4-oxo-2-sulfanylideneimidazolidin-1-yl}phenoxy)ethoxy]butan-2-yl]oxy}ethoxy)acetamido]-3,3-dimethylbutanoyl]-4-hydroxy-N-{[4-(4-methyl-1,3-thiazol-5-yl)phenyl]methyl}pyrrolidine-2-carboxamide]	51 to 500		> 71
Cc1ncsc1-c1ccc(CNC(=O)[C@@H]2C[C@@H](O)CN2C(=O)[C@@H](NC(=O)CCCOCCOCCNC(=O)c2ccc(N3C(=S)N(c4ccc(C#N)c(C(F)(F)F)c4)C(=O)C3(C)C)cc2F)C(C)(C)C)cc1 [Example 245]	> 501	26 to 50	
Cc1ncsc1-c1ccc(CNC(=O)[C@@H]2C[C@@H](O)CN2C(=O)[C@H](C(C)C)N2Cc3ccccc3C2=O)c(OCCCOCCOCCOc2ccc(N3C(=S)N(c4ccc(C#N)c(C(F)(F)F)c4)C(=O)C3(C)C)cc2)c1 [Example 205]	> 501	< 25	
Cc1ncsc1-c1ccc(CNC(=O)[C@@H]2C[C@@H](O)CN2C(=O)[C@@H](NC(=O)c2ccc(OCCOC3CCN(C(=O)c4ccc(N5C(=S)N(c6ccc(C#N)c(C(F)(F)F)c6)C(=O)C5(C)C)cc4)CC3)cc2)C(C)(C)C)cc1 [Example 291]	> 501	< 25	
Cc1ncsc1-c1ccc(CNC(=O)[C@@H]2C[C@@H](O)CN2C(=O)[C@@H](NC(=O)CCOCCOc2ccc(N3C(=S)N(c4ccc(C#N)c(C(F)(F)F)c4)C(=O)C3(C)C)cc2)C(C)(C)C)cc1 [Example 233]	> 501	51 to 70	
Cc1ncsc1-c1ccc(CNC(=O)[C@@H]2C[C@@H](O)CN2C(=O)[C@@H](NC(=O)CCOCCCCCOc2ccc(-c3ccc(N4C(=S)N(c5ccc(C#N)c(C(F)(F)F)c5)C(=O)C4(C)C)cc3)cc2)C(C)(C)C)cc1 [Example 72, (2S,4R)-1-[(2S)-2-[3-({5-[4-(4-{3-[4-cyano-3-(trifluoromethyl)phenyl]-5,5-dimethyl-4-oxo-2-sulfanylideneimidazolidin-1-yl}phenyl)phenoxy]pentyl}oxy)propanamido]-3,3-dimethylbutanoyl]-4-hydroxy-N-{[4-(4-methyl-1,3-thiazol-5-yl)phenyl]methyl}pyrrolidine-2-carboxamide]	51 to 500		> 71
Cc1ncsc1-c1ccc(CNC(=O)[C@@H]2C[C@@H](O)CN2C(=O)[C@H](C(C)C)N2Cc3ccccc3C2=O)c(OCCO[C@H](C)[C@@H](C)OCCOc2ccc(N3C(=S)N(c4ccc(C#N)c(C(F)(F)F)c4)C(=O)C3(C)C)cc2)c1 [Example 85, (2S,4R)-N-{[2-(2-{[(2R,3R)-3-[2-(4-{3-[4-cyano-3-(trifluoromethyl)phenyl]-5,5-dimethyl-4-oxo-2-sulfanylideneimidazolidin-1-yl}phenoxy)ethoxy]butan-2-yl]oxy}ethoxy)-4-(4-methyl-1,3-thiazol-5-yl)phenyl]methyl}-4-hydroxy-1-[(2S)-3-methyl-2-(1-oxo-2,3-dihydro-1H-isoindol-2-yl)butanoyl]pyrrolidine-2-carboxamide]	> 501		51 to 70
Cc1ncsc1-c1ccc(CNC(=O)[C@@H]2C[C@@H](O)CN2C(=O)[C@@H](NC(=O)COCCOCCOCCCCCOc2ccc(N3C(=S)N(c4ccc(C#N)c(C(F)(F)F)c4)C(=O)C3(C)C)cc2)C(C)(C)C)cc1 [Example 225]	< 50	51 to 70	
Cc1ncsc1-c1ccc(CNC(=O)[C@@H]2C[C@@H](O)CN2C(=O)[C@@H](NC(=O)COCCCOCCCCCOc2ccc(N3C(=S)N(c4ccc([N+](=O)[O-])c(C(F)(F)F)c4)C(=O)C3(C)C)cc2)C(C)(C)C)cc1 [Example 5, (2S,4R)-1-[(2S)-2-[2-(3-{[5-(4-{5,5-dimethyl-3-[4-nitro-3-(trifluoromethyl)phenyl]-4-oxo-2-sulfanylideneimidazolidin-1-yl}phenoxy)pentyl]oxy}propoxy)acetamido]-3,3-dimethylbutanoyl]-4-hydroxy-N-{[4-(4-methyl-1,3-thiazol-5-yl)phenyl]methyl}pyrrolidine-2-carboxamide]	51 to 500		> 71
Cc1ncsc1-c1ccc(CNC(=O)[C@@H]2C[C@@H](O)CN2C(=O)[C@@H](NC(=O)COCCCOC2CCN(C(=O)c3ccc(N4C(=S)N(c5ccc(C#N)c(C(F)(F)F)c5)C(=O)C4(C)C)cc3)CC2)C(C)(C)C)cc1 [Example 290]	> 501	51 to 70	
Cc1ncsc1-c1ccc(CNC(=O)[C@@H]2C[C@@H](O)CN2C(=O)[C@@H](NC(=O)COCCOCCCOc2ccc(N3C(=S)N(c4ccc(C#N)c(C(F)(F)F)c4)C(=O)C3(C)C)cc2)C(C)(C)C)cc1 [Example 243]	51 to 500	51 to 70	
Cc1ncsc1-c1ccc(CNC(=O)[C@@H]2C[C@@H](O)CN2C(=O)[C@@H](NC(=O)c2ccccc2OCCCOc2ccc(N3C(=S)N(c4ccc(C#N)c(C(F)(F)F)c4)C(=O)C3(C)C)cc2)C(C)(C)C)cc1 [Example 275]	> 501	< 25	
Cc1ncsc1-c1ccc(CNC(=O)[C@@H]2C[C@@H](O)CN2C(=O)[C@@H](NC(=O)CC(=O)CCCOCCCCCOc2ccc(N3C(=S)N(c4ccc(C#N)c(C(F)(F)F)c4)C(=O)C3(C)C)cc2)C(C)(C)C)cc1 [Example 305]	51 to 500	51 to 70	
Cc1ncsc1-c1ccc(CNC(=O)C2C[C@@H](OC(C)(C)C)CN2C(=O)[C@H](C(C)C)N2Cc3ccccc3C2=O)c(OCCOCCOCCOc2ccc(N3C(=O)N(c4ccc(C#N)c(C(F)(F)F)c4)C(=O)C3(C)C)cc2)c1 (stereo partly drawn) [Example 234]	51 to 500	26 to 50	
Cc1ncsc1-c1ccc(CNC(=O)[C@@H]2C[C@@H](O)CN2C(=O)[C@@H](NC(=O)CCCCOc2ccc(CCCOc3ccc(N4C(=S)N(c5ccc(C#N)c(C(F)(F)F)c5)C(=O)C4(C)C)cc3)cc2)C(C)(C)C)cc1 [Example 259]	51 to 500	> 71	
Cc1ncsc1-c1ccc(CNC(=O)[C@@H]2C[C@@H](O)CN2C(=O)[C@@H](NC(=O)c2ccc(C3CCN(CCCCOc4ccc(N5C(=S)N(c6ccc(C#N)c(C(F)(F)F)c6)C(=O)C5(C)C)cc4)CC3)cc2)C(C)(C)C)cc1 [Example 287]	> 501	51 to 70	
Cc1ncsc1-c1ccc(CNC(=O)[C@@H]2C[C@@H](O)CN2C(=O)[C@@H](NC(=O)c2ccccc2OCCOCCOc2ccc(N3C(=S)N(c4ccc(C#N)c(C(F)(F)F)c4)C(=O)C3(C)C)cc2)C(C)(C)C)cc1 [Example 282]	51 to 500	51 to 70	

— patent publication US11427548B2 (Arvinas Operations, Inc., priority 2015, dated 2022)
